From PubChem BioAssay AID1919015 (Molecular Pharmacology Branch, DTP, NCI, 2023)
Where “and” joins values, the source holds several entries; their conditions need not be identical. Equal values may be shown once.

Test system: OVCAR-5 complex spheroids with HUVEC/MSC, viability, % test/control
Assay: Anticancer human tumor OVCAR-5 cell line growth inhibition [AhR];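 also: spheroids exposed to compounds for 7 days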;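 as to viability, T/C: 100% = DMSO vehicle control wells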
Conditions: for viability, T/C: stronger effect = lower value
Outline: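 Complex tumor spheroids co-cultured with HUVEC and human MSC stroma; AhR antagonists tested in combination with standard-of-care and investigational agents. Top concentration at or near clinical Cmax (else 10 microM), half-log dilutions; growth expressed as percent test/control.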

[1] = curve of first compound, second compound 0.1 µM
[2] = curve of first compound, second compound 0.316 µM
[3] = curve of first compound, second compound 1 µM
[4] = curve of first compound, second compound 3.16 µM
[5] = curve of first compound, second compound 10 µM
[6] = second compound 0.1 µM, first compound 0.0316 µM
[7] = second compound 0.1 µM, first compound 0.1 µM
[8] = second compound 0.1 µM, first compound 0.316 µM
[9] = second compound 0.1 µM, first compound 1 µM
[10] = second compound 0.316 µM, first compound 0.0316 µM
[11] = second compound 0.316 µM, first compound 0.1 µM
[12] = second compound 0.316 µM, first compound 0.316 µM
[13] = second compound 0.316 µM, first compound 1 µM
[14] = second compound 1 µM, first compound 0.0316 µM
[15] = second compound 1 µM, first compound 0.1 µM
[16] = second compound 1 µM, first compound 0.316 µM
[17] = second compound 1 µM, first compound 1 µM
[18] = second compound 3.16 µM, first compound 0.0316 µM
[19] = second compound 3.16 µM, first compound 0.1 µM
[20] = second compound 3.16 µM, first compound 0.316 µM
[21] = second compound 3.16 µM, first compound 1 µM
[22] = second compound 10 µM, first compound 0.0316 µM
[23] = second compound 10 µM, first compound 0.1 µM
[24] = second compound 10 µM, first compound 0.316 µM
[25] = second compound 10 µM, first compound 1 µM
[26] = second compound 0.1 µM, first compound 3.16 µM
[27] = second compound 0.1 µM, first compound 10 µM
[28] = second compound 0.316 µM, first compound 3.16 µM
[29] = second compound 0.316 µM, first compound 10 µM
[30] = second compound 1 µM, first compound 3.16 µM
[31] = second compound 1 µM, first compound 10 µM
[32] = second compound 3.16 µM, first compound 3.16 µM
[33] = second compound 3.16 µM, first compound 10 µM
[34] = second compound 10 µM, first compound 3.16 µM
[35] = second compound 10 µM, first compound 10 µM

Structure (SMILES)	IC50 [1] [nM]	IC50 [2] [nM]	IC50 [3] [nM]	IC50 [4] [nM]	IC50 [5] [nM]	viability, T/C [6] [%]	viability, T/C [7] [%]	viability, T/C [8] [%]	viability, T/C [9] [%]	viability, T/C [10] [%]	viability, T/C [11] [%]	viability, T/C [12] [%]	viability, T/C [13] [%]	viability, T/C [14] [%]	viability, T/C [15] [%]	viability, T/C [16] [%]	viability, T/C [17] [%]	viability, T/C [18] [%]	viability, T/C [19] [%]	viability, T/C [20] [%]	also measured
Nc1ncn(C2CC(O)C(CO)O2)c(=O)n1 (configuration not stated) + Cc1cncc(-c2nc(NCCc3c[nH]c4ccccc34)c3ncn(C(C)C)c3n2)c1	> 1000	> 1000	> 1000	> 1000	< 3.16	87.6	80.7	69	62.7	90	74.8	65.5	59	85.4	78.3	61.5	61.8	70.4	64	59.8	viability, T/C (second compound 0.1 µM, first compound 0.00316 µM): 98.3%; viability, T/C (second compound 0.1 µM, first compound 0.01 µM): 94.2%; viability, T/C (second compound 0.316 µM, first compound 0.00316 µM): 93.8%; viability, T/C (second compound 0.316 µM, first compound 0.01 µM): 91.7%; viability, T/C (second compound 1 µM, first compound 0.00316 µM): 96.2%; viability, T/C (second compound 1 µM, first compound 0.01 µM): 85.5%; viability, T/C (second compound 3.16 µM, first compound 0.00316 µM): 79.8%; viability, T/C (second compound 3.16 µM, first compound 0.01 µM): 77.8%; viability, T/C [21]: 51.2%; viability, T/C (second compound 10 µM, first compound 0.00316 µM): 10.4%; viability, T/C (second compound 10 µM, first compound 0.01 µM): 10.1%; viability, T/C [22]: 8.47%; viability, T/C [23]: 8.64%; viability, T/C [24]: 8.49%; viability, T/C [25]: 11.6%
Nc1ccn(C2OC(CO)C(O)C2(F)F)c(=O)n1 (configuration not stated) + Cc1cncc(-c2nc(NCCc3c[nH]c4ccccc34)c3ncn(C(C)C)c3n2)c1	< 31.6	< 31.6	< 31.6	< 31.6	< 31.6	33.2	30.1	31.2	33	33.6	30.9	32	32	33.6	31.5	34.1	33	33.6	33.4	32	viability, T/C [26]: 33%; viability, T/C [27]: 31.6%; viability, T/C [28]: 32.2%; viability, T/C [29]: 31.6%; viability, T/C [30]: 34.9%; viability, T/C [31]: 32%; viability, T/C [21]: 32.5%; viability, T/C [32]: 35%; viability, T/C [33]: 34.4%; viability, T/C [22]: 3.2%; viability, T/C [23]: 3.6%; viability, T/C [24]: 4.58%; viability, T/C [25]: 4.3%; viability, T/C [34]: 6.36%; viability, T/C [35]: 9.03%
COc1cc(Nc2ncc3c(n2)-c2ccc(Cl)cc2C(c2c(F)cccc2OC)=NC3)ccc1C(=O)O + Cc1cncc(-c2nc(NCCc3c[nH]c4ccccc34)c3ncn(C(C)C)c3n2)c1	2650	3040	2740	875	< 31.6	88.1	83.6	63.6	58	87.3	80.9	63.3	59.9	85.5	79	60.5	59.5	69.8	68.6	56.7	viability, T/C [26]: 49.2%; viability, T/C [27]: 45.6%; viability, T/C [28]: 50.2%; viability, T/C [29]: 42.5%; viability, T/C [30]: 48.3%; viability, T/C [31]: 44.1%; viability, T/C [21]: 49.8%; viability, T/C [32]: 46.9%; viability, T/C [33]: 44%; viability, T/C [22]: 9.88%; viability, T/C [23]: 9.9%; viability, T/C [24]: 8.88%; viability, T/C [25]: 9.21%; viability, T/C [34]: 8.92%; viability, T/C [35]: 12.2%
CC(C)CC(NC(=O)C(Cc1ccccc1)NC(=O)c1cnccn1)B(O)O (configuration not stated)	–	–	–	–	–	–	–	–	–	–	–	–	–	–	–	–	–	–	–	–	viability, T/C (compound 0.000949 µM): 99.2% and 101% and 95.8%; viability, T/C (compound 0.003 µM): 99.8% and 102% and 100%; viability, T/C (compound 0.00949 µM): 100% and 96.3% and 85.5%; viability, T/C (compound 0.03 µM): 78.9% and 69.3% and 39%; viability, T/C (compound 0.0949 µM): 36% and 27.6% and 18%; viability, T/C (compound 0.3 µM): 24.7% and 18.1% and 11.4%; IC50 (curve of compound): 64.9 nM and 51 nM and 23.1 nM
O=C(C=Cc1cccc(S(=O)(=O)Nc2ccccc2)c1)NO + Cc1ccccc1N=Nc1ccc(NC(=O)c2ccnn2C)c(C)c1	1100	1080	1180	1030	1060	100	89.7	76.1	53	101	97.2	77.2	54.2	103	97.4	84.8	54.1	103	99.3	81	viability, T/C [26]: 24.8%; viability, T/C [27]: 5.54%; viability, T/C [28]: 21.3%; viability, T/C [29]: 5.42%; viability, T/C [30]: 22.6%; viability, T/C [31]: 5.11%; viability, T/C [21]: 50.2%; viability, T/C [32]: 21.6%; viability, T/C [33]: 5.09%; viability, T/C [22]: 93.4%; viability, T/C [23]: 96.2%; viability, T/C [24]: 76.2%; viability, T/C [25]: 52%; viability, T/C [34]: 22.3%; viability, T/C [35]: 5.86%
